Experimental data reported in US20260258006A1, “NEW ANTIBIOTIC COMPOUNDS” (UNIVERSITÉ CÔTE D'AZUR, priority 2022, published 2026).
Converted amounts (≈) assume the structure as drawn. Like-named read-outs stand apart in the source and are kept apart here.

How the values were obtained:
Format in all cases: cell-based
[1] = tested on: Staphylococcus aureus strain RN4220; experiment: Bacterial growth inhibition screen at 50 μM; conditions: RN4220, 50 μM, 20 h, 37° C.
Method: (§1) The inhibition of the growth of two Staphylococcus aureus strains ([…], modified laboratory strain, non-pathogenic; and S25, pathogenic strain obtained from patients) by the presence of our compounds were used to evaluate their efficacy as bacteriostatic and/or bactericide compounds.
(§2) All compounds presented were dissolved in DMSO (10 mM stock solution) and tested initially at 50 μM concentration. The bacterial growth was measured after 5 h and 20 h incubation at 37° C. with the compounds. As positive control, the antibiotics ampicillin and kanamycin were used.

[2] = tested on: Staphylococcus aureus strain S25; experiment: Bacterial growth inhibition screen at 50 μM; conditions: S25, 50 μM, 20 h, 37° C.
Method: as §1, §2

[3] = tested on: Staphylococcus aureus strain RN4220; experiment: Minimal Inhibitory Concentration (MIC) determination; conditions: read-out: MIC RN4220
Method: (§3) MIC is defined as the smallest concentration of a compound that inhibits the growth of bacteria. For that, 6 doses were tested (1, 5, 12.5, 25, 50, 100 μM) for both strains incubated at 37° C., for 20 h.
(§4) Minimum inhibitory concentration (MIC, incubation for 20 h) and maximum bactericide concentration (MBC, incubation for 24 h) for S. aureus strains RN4220 and S25.
(§5) 2 Staphylococcus aureus Strains: • RN4220 (non-pathogenic) • S25 (pathogenic) • MIC: minimal inhibitory concentration • MBC: minimal bactericide concentration

[4] = tested on: Staphylococcus aureus strain S25; experiment: as above; conditions: Bacteriostatic, 20 h, 37° C., pathogenic strain
Method: as §3, §4, §5

[5] = tested on: Staphylococcus aureus strain RN4220; experiment: Minimal Bactericide Concentration (MBC) determination; conditions: RN4220, 24 h, read-out: MBC RN4220
Method: as §3, §4, §5

[6] = tested on: Staphylococcus aureus strain S25; experiment: as above; conditions: 24 h in fresh media, pathogenic strain
Method: as §3, §4, §5

[7] = tested on: human embryonic kidney 293 cells (HEK293); experiment: Cytotoxicity by extracellular LDH release (CyQUANT LDH Cytotoxicity Assay Kit); conditions: HEK293, 24 h, at their active doses (range of MIC and MBC), N=3
Method: • HEK293: 24 h in the presence of the bactericide compounds or DMSO • Method of evaluation: CyQUANT™ LDH Cytotoxicity Assay Kit.
Cytotoxicity through extracellular lactate dehydrogenase (LDH) quantification upon incubation of the compounds with HEK 293T cells at the same range of concentration as MIC and MBC. LDH: positive control, DMEM: negative control. N=3.
Preliminary safety of these compounds towards host cells was evaluated by using a extracellular lactate dehydrogenase (LDH) release model with human embryonic kidney 293 cells (HEK293).

[8] = RN4220, Bacteriostatic, 20 h, 37° C., non-pathogenic strain

| Structure (SMILES) | bacterial growth / growth inhibition (in words) [1] | bacterial growth / growth inhibition (in words) [2] | MIC [3, 8] | MIC [4] | MBC [5] | MBC [6] | cytotoxicity (extracellular LDH level versus DMSO control) [7] | MIC ([3]; RN4220, 20 h) |
| --- | --- | --- | --- | --- | --- | --- | --- | --- |
| N=C(Nc1nc2c(Cl)cccc2s1)C(Cl)(Cl)Cl [MTF235, 2,2,2-trichloro-N-(4-chlorobenzo[d]thiazol-2-yl)acetimidamide] | no growth | no growth | 25 µM (≈ 8.23 µg/mL) | 25 µM (≈ 8.23 µg/mL) | 50 µM (≈ 16.5 µg/mL) | 50 µM (≈ 16.5 µg/mL) | no cytotoxicity activity | – |
| Cc1cccc2sc(NC(=N)C(Cl)(Cl)Cl)nc12 [MTF572, 2,2,2-trichloro-N-(4-methylbenzo[d]thiazol-2-yl)acetimidamide] | no growth | no growth | – | 40 µM (≈ 12.3 µg/mL) | 100 µM (≈ 30.9 µg/mL) | – | – | 40 µM (≈ 12.3 µg/mL) |
| N=C(Nc1nc2c(F)cc(F)cc2s1)C(Cl)(Cl)Cl [MTF573, 2,2,2-trichloro-N-(4,6-difluorobenzo[d]thiazol-2-yl)acetimidamide] | no growth | no growth | 40 µM (≈ 13.2 µg/mL) | 50 µM (≈ 16.5 µg/mL) | 50 µM (≈ 16.5 µg/mL) | 50 µM (≈ 16.5 µg/mL) | no cytotoxicity activity | – |
| O=C(Nc1nc2c(Cl)cc(Cl)cc2s1)C(Cl)(Cl)Cl [MTF640, N-(4,6-dichlorobenzo[d]thiazol-2-yl)trichloroacetamide] | – | – | 12.5 µM (≈ 4.56 µg/mL) | 25 µM (≈ 9.11 µg/mL) | 50 µM (≈ 18.2 µg/mL) | 50 µM (≈ 18.2 µg/mL) | no cytotoxicity activity | – |
| N=C(Nc1nc2c(Cl)cc(Cl)cc2s1)C(Cl)(Cl)Cl [MTF642, 2,2,2-trichloro-N-(4,6-dichlorobenzo[d]thiazol-2-yl)acetimidamide] | – | – | 12.5 µM (≈ 4.54 µg/mL) | 50 µM (≈ 18.2 µg/mL) | 12.5 µM (≈ 4.54 µg/mL) | 50 µM (≈ 18.2 µg/mL) | no cytotoxicity activity | – |
| N=C(Nc1nc2c(Br)cccc2s1)C(Br)Br [MTF643, 2,2-dibromo-N-(4-bromobenzo[d]thiazol-2-yl)acetimidamide] | – | – | 25 µM (≈ 10.7 µg/mL) | 25 µM (≈ 10.7 µg/mL) | 25 µM (≈ 10.7 µg/mL) | 50 µM (≈ 21.4 µg/mL) | no cytotoxicity activity | – |
